Source: paper PMC9942528 (Journal of medicinal chemistry, 2022)
Where two headings read alike, the source gives them in different places. Marks after values point to notes of the source that are not given here. Values belong to the molecule of their own block, whether it stands above or below them.

Legend:
[1] = Stability assay in rat liver microsomes; assay type: in vitro ADME; details: for microsomal CLint at 2 h, 10 µM: pH 7.4; for less stable than (R)- and (S)-11b, (R)- and (S)-11c, and 2: recovery after 30 min; for less stable than (R)- and (S)-11b, (R)- and (S)-11c, and 2 / Metabolic stability, % after 30 min incubation: rat microsomes; for Metabolic stability, % after 30 min incubation: 10 μM, parent remaining
[2] = tested on: mouse microglial N9 cells; assay: Cytotoxicity, MTT assay in N9 cells; assay type: cell-based
[3] = tested on: murine N9 cells; assay: ELISA of TNF-α and IL-1β in N9 cells, resting and LPS-stimulated; assay type: cell-based, mouse; details: for release of IL-1β and TNF-α under resting conditions: 0.5 to 5 μM; for effect on LPS-induced cytokines (IL-1β, TNF-α) production: LPS 100 ng/mL 24 h
[4] = target: T1, human FPR2 (Homo sapiens, UniProt P25090); assay: Ca2+ mobilization; details: for increase in FPR2 potency as compared to 2: ratio of EC50 values
T1 sequence (P25090 1-351): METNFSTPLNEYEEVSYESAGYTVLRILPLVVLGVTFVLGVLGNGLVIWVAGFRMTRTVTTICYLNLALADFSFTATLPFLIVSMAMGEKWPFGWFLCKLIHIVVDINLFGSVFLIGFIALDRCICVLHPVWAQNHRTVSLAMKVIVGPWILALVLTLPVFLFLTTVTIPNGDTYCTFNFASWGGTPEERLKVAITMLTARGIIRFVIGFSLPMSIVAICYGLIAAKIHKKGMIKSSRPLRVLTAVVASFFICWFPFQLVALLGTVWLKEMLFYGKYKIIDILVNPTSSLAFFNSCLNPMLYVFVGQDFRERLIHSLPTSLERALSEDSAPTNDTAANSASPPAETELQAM

[5] = tested on: rat primary microglial cells; assay: Nitric oxide; assay type: cell-based; details: for effect on LPS-induced NO production: 0.1 μM, LPS 100 ng/mL 24 h; for effect on NO production under resting conditions: rat primary microglial cells
[6] = tested on: caspase-3; assay: Caspase-3 activity in rat primary microglial cells; assay type: cell-based; details: 0.1 μM, LPS 100 ng/mL 24 h
[7] = tested on: rat primary microglial cells; assay: LDH release assay in rat primary microglial cells; details: for effect on LPS-induced cell death (LDH release): 0.1 μM, LPS 100 ng/mL 24 h; for effect on cell viability (LDH) under resting conditions: rat primary microglial cells
[8] = target: T1, human FPR2; details: functional antagonism vs WKYMVM
[9] = In vivo pharmacokinetics in mice; details: for Tmax: male, CD-1, mouse, plasma
[10] = rat microsomes; ref [25]; cited from earlier work
[11] = tested on: rat primary microglial cells; details: rat primary microglial cultures stimulated with LPS; ref [25]; cited from earlier work
[12] = hCMEC/D3 cells; ref [25]; cited from earlier work
[13] = tested on: mouse hippocampal organotypic cultures; details: OHCs stimulated with LPS, pre-treatment; ref [27]; cited from earlier work
[14] = tested on: APP/PS1 mouse model; details: systemic administration, ref [28]; cited from earlier work
[15] = rat, rat liver microsomes, pH 7.4, half-life

Compound: N#Cc1ccc(C[C@@H](NC(=O)Nc2ccc(F)cc2)C(=O)NC2CCCCNC2=O)cc1 (stereo partly drawn) [(R)-11a, (2R)-3-(4-Cyanophenyl)-2-(3-(4-fluorophenyl)ureido)-N-(2-oxoazepan-3-yl)propenamide]
microsomal CLint at 2 h, 10 µM ([1]; rat, rat liver microsomes): 5.5 µL/min/mg
half-life at 2 h, 10 µM [1, 15]: 120 min
cytotoxic effect in the MTT test [2]: did not exert any cytotoxic effects

Compound: N#Cc1ccc(C[C@@H](NC(=O)Nc2ccc(F)cc2)C(=O)N2CCCCC2)cc1 [(R)-11b, (R)-1-(3-(4-Cyanophenyl)-1-oxo-1-(piperidin-1-yl)propan-2-yl)-3-(4-fluorophenyl)urea]
cytotoxic effect in the MTT test [2]: did not exert any cytotoxic effects

Compound: N#Cc1ccc(C[C@@H](NC(=O)Nc2ccc(F)cc2)C(=O)N2CCCC2)cc1 [(R)-11c, (R)-1-(3-(4-Cyanophenyl)-1-oxo-1-(pyrrolidin-1-yl)propan-2-yl)-3-(4-fluorophenyl)urea]
cytotoxic effect in the MTT test [2]: did not exert any cytotoxic effects

Compound: N#Cc1ccc(C[C@@H](NC(=O)Nc2ccc(F)cc2)C(=O)N2CCCc3ccccc32)cc1 [(R)-11g, (R)-1-(3-(4-Cyanophenyl)-1-(3,4-dihydroquinolin-1(2H)-yl)-1-oxopropan-2-yl)-3-(4-fluorophenyl)urea]
less stable than (R)- and (S)-11b, (R)- and (S)-11c, and 2 [1]: 2–3 fold

Compound: N#Cc1ccc(C[C@H](NC(=O)Nc2ccc(F)cc2)C(=O)NC2CCCCNC2=O)cc1 (stereo partly drawn) [(S)-11a, (2S)-3-(4-Cyanophenyl)-2-(3-(4-fluorophenyl)ureido)-N-(2-oxoazepan-3-yl)propenamide]
microsomal CLint at 2 h, 10 µM ([1]; rat, rat liver microsomes): 4.4 µL/min/mg
half-life at 2 h, 10 µM [1, 15]: 157 min
cytotoxic effect in the MTT test [2]: did not exert any cytotoxic effects
release of IL-1β and TNF-α under resting conditions [3]: did not induce the release
effect on LPS-induced cytokines (IL-1β, TNF-α) production [3]: effectively decrease LPS-induced cytokines production
increase in FPR2 potency as compared to 2 [4]: 20 fold

Compound: N#Cc1ccc(C[C@H](NC(=O)Nc2ccc(F)cc2)C(=O)N2CCc3ccccc32)cc1 [(S)-11e, (S)-1-(3-(4-Cyanophenyl)-1-(indolin-1-yl)-1-oxopropan-2-yl)-3-(4-fluorophenyl)urea]
microsomal CLint at 2 h, 10 µM ([1]; rat, rat liver microsomes): 33 µL/min/mg
half-life at 2 h, 10 µM [1, 15]: 21 min
less stable than (R)- and (S)-11b, (R)- and (S)-11c, and 2 [1]: 2–3 fold
release of IL-1β and TNF-α under resting conditions [3]: did not induce the release
effect on LPS-induced cytokines (IL-1β, TNF-α) production [3]: effectively decrease LPS-induced cytokines production
effect on LPS-induced NO production [5]: effectively blocked
effect on NO production under resting conditions [5]: did not induce any effect
effect on LPS-induced activation of caspase-3 [6]: significantly reduced this activation
effect on LPS-induced cell death (LDH release) [7]: effectively blocked LPS-induced cell death
effect on cell viability (LDH) under resting conditions [7]: did not induce any effect

Compound: N#Cc1ccc(C[C@H](NC(=O)Nc2ccc(F)cc2)C(=O)N2CCCc3ccccc32)cc1 [(S)-11g, (S)-1-(3-(4-Cyanophenyl)-1-(3,4-dihydroquinolin-1(2H)-yl)-1-oxopropan-2-yl)-3-(4-fluorophenyl)urea]
less stable than (R)- and (S)-11b, (R)- and (S)-11c, and 2 [1]: 2–3 fold

Compound: N#Cc1ccc(C[C@H](NC(=O)Nc2ccc(F)cc2)C(=O)N2CCc3ccc(F)cc32)cc1 [(S)-11l, (S)-1-(3-(4-Cyanophenyl)-1-(6-fluoroindolin-1-yl)-1-oxopropan-2-yl)-3-(4-fluorophenyl)urea]
Metabolic stability, % after 30 min incubation [1]: 33%
release of IL-1β and TNF-α under resting conditions [3]: did not induce the release
effect on LPS-induced cytokines (IL-1β, TNF-α) production [3]: effectively decrease LPS-induced cytokines production
effect on LPS-induced NO production [5]: effectively blocked
effect on NO production under resting conditions [5]: did not induce any effect
effect on LPS-induced activation of caspase-3 [6]: significantly reduced this activation
Tmax ([9]; ip, 10 mg/kg): 30 min
Tmax ([9]; iv, 1 mg/kg): 5 min
blood-brain barrier permeation ([9]; mice, i.p. 10 mg/kg): able to permeate the blood–brain barrier and to accumulate in the brain
time until which the compound was detectable in plasma ([9]; mice, i.v. 1 mg/kg): 4 h
effect on LPS-induced cell death (LDH release) [7]: effectively blocked LPS-induced cell death
effect on cell viability (LDH) under resting conditions [7]: did not induce any effect

Compound: N#Cc1ccc(C[C@H](NC(=O)Nc2ccc(F)cc2)C(=O)NCC2(c3ccc(F)c(Cl)c3)CC2)cc1 [Compound 2]
Metabolic stability, % after 30 min incubation [10]: 33^b %
release of IL-1β and TNF-α [11]: reduces the release
efflux ratio ER (BA/AB) [12]: 2.6
release of TNF-α and IL-1β [13]: attenuated the release of TNF-α and IL-1β
neuronal survival, microglial cell density and plaque load [14]: improved neuronal survival and decreased microglial cell density and plaque load
selectivity FPR2 versus FPR1 ([4]; EC50 FPR1 vs EC50 FPR2): almost equipotent at both receptors

Continued, in another order:

less stable than (R)- and (S)-11b, (R)- and (S)-11c, and 2 [1]: 2–3 fold
Compound: N#Cc1ccc(C[C@@H](NC(=O)Nc2ccc(F)cc2)C(=O)N2Cc3ccccc3C2)cc1 [(R)-11d, (R)-1-(3-(4-Cyanophenyl)-1-(isoindolin-2-yl)-1-oxopropan-2-yl)-3-(4-fluorophenyl)urea]

less stable than (R)- and (S)-11b, (R)- and (S)-11c, and 2 [1]: 2–3 fold
Compound: N#Cc1ccc(C[C@@H](NC(=O)Nc2ccc(F)cc2)C(=O)N2CCc3ccccc32)cc1 [(R)-11e, (R)-1-(3-(4-Cyanophenyl)-1-(indolin-1-yl)-1-oxopropan-2-yl)-3-(4-fluorophenyl)urea]

less stable than (R)- and (S)-11b, (R)- and (S)-11c, and 2 [1]: 2–3 fold
Compound: N#Cc1ccc(C[C@@H](NC(=O)Nc2ccc(F)cc2)C(=O)N2CCc3ccccc3C2)cc1 [(R)-11f, (R)-1-(3-(4-Cyanophenyl)-1-(3,4-dihydroisoquinolin-2(1H)-yl)-1oxopropan-2-yl)-3-(4-fluorophenyl)urea]

Metabolic stability, % after 30 min incubation [1]: 58%
microsomal CLint at 2 h, 10 µM ([1]; rat, rat liver microsomes): 6.4 µL/min/mg
half-life at 10 μM [1, 15]: 108 min
Compound: N#Cc1ccc(C[C@@H](NC(=O)Nc2ccc(F)cc2)C(=O)N2CCc3cc(F)ccc32)cc1 [(R)-11i, (R)-1-(3-(4-Cyanophenyl)-1-(5-fluoroindolin-1-yl)-1-oxopropan-2-yl)-3-(4-fluorophenyl)urea]

microsomal CLint at 2 h, 10 µM ([1]; rat, rat liver microsomes): 23.3 µL/min/mg
half-life at 2 h, 10 µM [1, 15]: 30 min
Compound: N#Cc1ccc(C[C@@H](NC(=O)Nc2ccc(F)cc2)C(=O)N2CCc3ccc(F)cc32)cc1 [(R)-11l, (R)-1-(3-(4-Cyanophenyl)-1-(6-fluoroindolin-1-yl)-1-oxopropan-2-yl)-3-(4-fluorophenyl)urea]

Metabolic stability, % after 30 min incubation [1]: 34%
microsomal CLint at 2 h, 10 µM ([1]; rat, rat liver microsomes): 13.9 µL/min/mg
increase in FPR2 potency as compared to 2 [4]: 4 fold
Compound: N#Cc1ccc(C[C@H](NC(=O)Nc2ccc(F)cc2)C(=O)N2CCCCC2)cc1 [(S)-11b, (S)-1-(3-(4-Cyanophenyl)-1-oxo-1-(piperidin-1-yl)propan-2-yl)-3-(4-fluorophenyl)urea]
cytotoxic effect in the MTT test [2]: did not exert any cytotoxic effects

Metabolic stability, % after 30 min incubation [1]: 65%
microsomal CLint at 2 h, 10 µM ([1]; rat, rat liver microsomes): 6.2 µL/min/mg
increase in FPR2 potency as compared to 2 [4]: equipotent
Compound: N#Cc1ccc(C[C@H](NC(=O)Nc2ccc(F)cc2)C(=O)N2CCCC2)cc1 [(S)-11c, (S)-1-(3-(4-Cyanophenyl)-1-oxo-1-(pyrrolidin-1-yl)propan-2-yl)-3-(4-fluorophenyl)urea]
cytotoxic effect in the MTT test [2]: did not exert any cytotoxic effects

microsomal CLint at 2 h, 10 µM ([1]; rat, rat liver microsomes): 24.7 µL/min/mg
half-life at 2 h, 10 µM [1, 15]: 28 min
less stable than (R)- and (S)-11b, (R)- and (S)-11c, and 2 [1]: 2–3 fold
Compound: N#Cc1ccc(C[C@H](NC(=O)Nc2ccc(F)cc2)C(=O)N2Cc3ccccc3C2)cc1 [(S)-11d, (S)-1-(3-(4-Cyanophenyl)-1-(isoindolin-2-yl)-1-oxopropan-2-yl)-3-(4-fluorophenyl)urea]

less stable than (R)- and (S)-11b, (R)- and (S)-11c, and 2 [1]: 2–3 fold
IC50 at FPR2, range in words [8]: nanomolar range
Compound: N#Cc1ccc(C[C@H](NC(=O)Nc2ccc(F)cc2)C(=O)N2CCc3ccccc3C2)cc1 [(S)-11f, (S)-1-(3-(4-Cyanophenyl)-1-(3,4-dihydroisoquinolin-2(1H)-yl)-1oxopropan-2-yl)-3-(4-fluorophenyl)urea]

loss of FPR2 potency versus the non-substituted counterpart ([4]; 11h vs 11b): 20 fold
Compound: N#Cc1ccc(C[C@H](NC(=O)Nc2ccc(F)cc2)C(=O)N2CCC(F)(F)CC2)cc1 [(S)-11h, (S)-1-(3-(4-Cyanophenyl)-1-(4,4-difluoropiperidin-1-yl)-1-oxopropan-2-yl)-3-(4-fluorophenyl)urea]
cytotoxic effect in the MTT test [2]: did not exert any cytotoxic effects

microsomal CLint at 2 h, 10 µM ([1]; rat, rat liver microsomes): 4.1 µL/min/mg
Compound: N#Cc1ccc(C[C@H](NC(=O)Nc2ccc(F)cc2)C(=O)N2Cc3ccc(F)cc3C2)cc1 [(S)-11j, (S)-1-(3-(4-Cyanophenyl)-1-(5-fluoroisoindolin-2-yl)-1-oxopropan-2-yl)-3-(4-fluorophenyl)urea]
